The source of these data is patent US20050255491A1, “Small molecule and peptide arrays and uses thereof” (priority 2003, published 2005).

For series [1], the system named is antibody P1 (specific for PSA-derived PET EPAELTDA). Kind of series: Peptide competition assay, antibody P1. Format: binding. To be noted: for fold higher concentration at which nearest neighbor is still ineffective: relative to antigen PET EPAELTDA
The procedure: (§1) In certain embodiments of the invention, a peptide competition assay may be used to determine the binding specificity of a capture agent towards its target PET, as compared to several nearest neighbor sequences of the PET. The same protocol can be adapted for small molecule-based competition assay
(§2) For a typical peptide competition assay, the following illustrative protocol may be used: 1 μg/100 μl/well of each target peptide is coated in Maxisorb Plates with coating buffer (carbonate buffer, pH 9.6) overnight at 4° C., or 1 hour at room temperature. The plates are washed with 300 μl of PBST (1×PBS/0.05% Tween 20) for 4 times. Then 300 μl of blocking buffer (2% BSA/PBST) is added and the plates are incubated for 1 hour at room temperature. Following blocking, the plates are washed with 300 μl of PBST for 4 times.
Synthesized competition peptides are dissolved in water to a final concentration of 2 mM solution. Serial dilution of competition peptides (for example, from 100 pM to 100 μM) in digested human serum are prepared. These competition peptides at particular concentrations are then mixed with equal amounts of primary antibodies against the target peptide. These mixtures are then added to plate wells with immobilized target peptides respectively. Binding is allowed to proceed for 2 hours at room temperature. The plates are washed with 300 μl of PBST for 4 times. Then labeled secondary antibody against the primary antibody, such as 100 μl of 5,000× diluted anti-rabbit-IgG-HRP, is added and incubated for 1 more hour at room temperature. The plates are washed with 300 μl of PBST for 6 times. For detection of the HRP label activity, add 100 μl of TMB substrate (for HRP) and incubate for 15 minutes at room temperature. Add 100 μl of stop buffer (2N HCL) and read the plates at OD450. A peptide competition curve is plotted using the ABS at OD450 versus the competitor peptide concentrations. […]

In series [2] the target is antibodies specific for the respective peptide antigens. To be noted: antibody against the listed peptide; value taken from the reference; read-out: Affinity KD; cited from earlier work.
In series [3] the test system is alkaline protease from Bacillus sp. PS719. The settings on record: cited from earlier work.
In series [4] the test system is obese (NZO×NON)F1 male mice. The settings on record: chronic treatment; cited from earlier work.
In series [5] the test system is antibody C1 (specific for CRP-derived PET YEVQGEVF). Kind of series: Peptide competition assay, antibody C1. Format: binding. The settings on record: competitor peptide against immobilized PET, neighbors completely ineffective even at the stated concentration, read-out: half-maximum effective peptide concentration. The protocol: as §1, §2
Synthesized competition peptides are dissolved in water to a final concentration of 2 mM solution. Serial dilution of competition peptides (for example, from 100 pM to 100 μM) in digested human serum are prepared. These competition peptides at particular concentrations are then mixed with equal amounts of primary antibodies against the target peptide. These mixtures are then added to plate wells with immobilized target peptides respectively. Binding is allowed to proceed for 2 hours at room temperature. […] Add 100 μl of stop buffer (2N HCL) and read the plates at OD450. […]

The target of series [6] is antibody used in the PET-based peptide competition assay for the Survivin peptide …. Kind of series: Survivin Peptide Competitive Assay, ABS 450.
In series [7] the target is antibody C1, specific for the CRP-derived 8-mer PET sequence YEVQGEVF
Kind of series: peptide competition ELISA: soluble peptide series against the same immobilized peptide for a fixed concentration of antibody, in 10 mM digested serum proteins, HRP secondary antibody, ABS 450. Background: In an ELISA, binding on a coated surface is turned into a signal by an enzyme label.

The target is the same in series [8]. Kind of series: peptide competition assay, soluble PET against immobilized PET for antibody C1.
Series [9] concerns the target PET-specific antibody used in the peptide competition assay for the Troponin T peptide …. Description: peptide competition ELISA with immobilized peptide, in 10mM digested serum proteins, ABS 450.
Series [10] deals with antibody C2, specific for the CRP PET sequence GYSIFSYA
Description: peptide competition ELISA: soluble peptide series against the same immobilized peptide for a fixed concentration of antibody, in 10 mM digested serum proteins, HRP secondary antibody, ABS 450.

The mark [11] stands for this setting: liberation of p-nitroaniline from the substrate.

As to “EPVELTSA [nearest-neighbor 8-mer of EPAELTDA found in the human proteome]”, the “fold higher concentration at which nearest neighbor is still ineffective” value in series [1] is recorded as 25,000 fold.

A word on the Kd: it is the equilibrium constant for the complex coming apart. For the molecule “NYRAYATEPHAKKKS [15-aa peptide antigen of a literature antibody (EJB 267:1819, 2000)]”, the Kd in [2] was 0.5 nM.

On to `O=S(=O)(F)Cc1ccccc1` [PMSF, phenylmethylsulfonyl fluoride], for which the “inhibition of protease activity” value in series [3] is “completely inhibited”.

Turning to GATPEDLNQKLAGN, in series [2], the Kd is 1.4 nM.

Take PQSDPSVEPPLS: the Kd in series [2] was 16 nM.

Take YDVPDYAS (HA tag): the Kd in [2] was 2 nM.

For orientation: Km means the substrate concentration at which the rate is half of its maximum. As for “N-carbobenzoxy (CBZ)-L-arginine-p-nitroanilide”, in series [3] (setting [11]), the Km is 600 µM and the Vmax is listed as 1.0 μmol min^−1 mg protein^−1.

Consider CRGTGSYNRSSFESSSG, for which, in series [2], the Kd is 2.8 nM.

Turning to `O=c1oc(Cl)c(Cl)c2ccccc12` [DCI, 3,4-dichloroisocoumarin], the “inhibition of protease activity” value in [3] is listed as “completely inhibited”.

For `CN(CCOc1ccc(CC2SC(=O)NC2=O)cc1)c1ccccn1` (stereo not drawn) [rosiglitazone], in [4], the “effect on hepatic steatosis” value is given as “markedly exacerbated”.

For “MDYKAFDN (FLAG tag) [8-aa FLAG tag peptide]”, the Kd in [2] was 2.3 nM.

Take “HHHHH [HHHHH (HIS tag), 5-aa HIS tag peptide]”: the Kd in series [2] is 25 nM.

Take `Cc1ccc(S(=O)(=O)N[C@@H](CCCCN)C(=O)CCl)cc1` [TLCK, N-α-p-tosyl-L-lysine chloromethyl ketone]: in series [3], the “inhibition of protease activity” value is “completely inhibited”.

As to YEVQGEVF, in series [5], the IC50 is around 1000 nM.

As to EPAELTDA, the IC50 in series [1] (competitor peptide against immobilized PET, read-out: half-maximum effective peptide concentration) is around 40 nM.

As for “RYDIEAKVTK [10-aa peptide antigen of a literature antibody (JI 169:6992, 2002)]”, the Kd in series [2] was 3.5 nM.

Turning to “DPTQLTDA [nearest-neighbor 8-mer of EPAELTDA found in the human proteome]”, in series [1], the “fold higher concentration at which nearest neighbor is still ineffective” value is listed as 25,000 fold.

B1: Survivin peptide … (peptide)
peptide: MGAPTLPPAWQPF
In the case of B1, the IC50 (read off the curve) in [6] worked out at 20 nM.

B2: CRP-derived 8-mer PET peptide YEVQGEVF (peptide)
peptide: YEVQGEVF
B2: in series [7], the Detection Limit came to 100 pM. This molecule gave an IC50 in [8] of 1000 nM.

B3: Troponin T tryptic PET-peptide … (peptide)
peptide: SFMPNLVPPK
In turn, B3 returned an IC50 (read off the curve) in series [9] of 20 nM.

B4: CRP PET peptide GYSIFSYA (peptide)
peptide: GYSIFSYA
In series [10], B4 returned a Detection Limit of 1 nM and an IC50 (read off the curve) of 1000 nM.
